From publication PMC11660961, “Leucinostatins target Plasmodium mitochondria to block malaria transmission” (Parasites & Vectors, 2024)
pIC50: −log10 of the molar value. Entries after “also recorded” stand apart in the source; their conditions may differ. *1 amine or outer side, *2 acyl side, *3 side chain or, on linkers, in order; H or OH if unused. Where a SMILES comes first, the peptide text is derived from it. [ ]: non-standard residue; d: D form. The star is where a group is joined. X3 = C[C@@H](CN(C)C(=O)CCCCCNC(=O)CCCC[C@@H]1SC[C@@H]2NC(=O)N[C@@H]21)N*; X2 = C[C@@H](CN(C)C(=O)CCC[n+]1c2cc(N(C)C)ccc2cc2ccc(N(C)C)cc21)N*; X1 = CCC(=O)C[C@H](O)C[C@@H](C)C[C@H](N[*:1])C(=O)[*:2]; Hexenoyl(2E,4S-Me) = CC[C@H](C)/C=C/C(=O)*; Leu(3R-OH) = CC(C)[C@@H](O)[C@H](N)C(=O)O; NH((S)CH(Me)CH2NMe2) = C[C@@H](CN(C)C)N*; Pro(4S-Me) = C[C@@H]1CN[C@H](C(=O)O)C1; NH((S)CH(CH3)CH2NHMe) = CNC[C@H](C)N*; Aib = CC(C)(N)C(=O)O; βAla = NCCC(=O)O

How the values were obtained:
[1] = system: P. falciparum transmission to mosquitoes; test: Standard membrane feeding assay (SMFA), malaria transmission-blocking activity; format: in vivo, Plasmodium falciparum (NF54) in Anopheles gambiae (G3); details: same set of cultured parasites and mosquitoes, Fig. 3d
Description: As we described previously, we maintained An. gambiae (G3 strain) at 27 °C with 80% humidity and a 12 h day/night cycle. Larvae were fed fish food for koi, adult mosquitoes were maintained with 10% sugar in water, and female mosquitoes were fed with purchased human blood to lay eggs. Eggs were collected 48 h after blood-feeding with wet filter papers and hatched in pure water.
P. falciparum (NF54) was cultured in the lab with 4% O + -type red blood cells in a complete Roswell Park Memorial Institute (RPMI) 1640 medium with 10% human AB + serum and 12.5 μg/ml of hypoxanthine in a candle jar at 37 °C. Then, 15-day-old cultured P. falciparum-infected cells were collected through centrifugation (300 g for 3 min), and about 100 μl of pellet were resuspended in 1.5 ml fresh AB + -type serum and mixed with 1.4 ml O + -type red blood cells, containing about 0.2% stage V gametocytes. Each candidate compound was dissolved in dimethylsulfoxide (DMSO) and diluted with DMSO to obtain different concentrations. About 2 μl of candidate solution was mixed with 298 μl of P. falciparum-infected blood prepared above and was used to feed 60–80 3–5-day-old An. gambiae with feeders covered with parafilm at 37 °C for 30 min. […] The midguts were stained with 0.1% mercury dibromofluorescein disodium salt in phosphate-buffered saline (PBS), and the oocysts were counted under a light microscope.

[2] = Reverse-phase C18 HPLC elution time as measure of hydrophobicity; format: physicochemical; details: chromatographic; semi-prep C18 column (Gemini 5 μm 110A, 250 × 10 mm), gradient 50% methanol to 100% methanol in 50 min, 1 ml per min, A254; approximate time
Description: LA and LB were purified from P. lilacum as described. LA/LB mixture (Sigma) was also purchased from Sigma. LB C-terminus were modified by linking biotin and Atto495. Around 0.4 µmol of LB and 8 µmol of amine-reactive EZ-Link™ NHS-LC-Biotin (Invitrogen; molar ratio: 1:20) were mixed in 2 mL of PBS buffer (pH = 7.2) and reacted for continuous stirring 4 h at room temperature. Then, the reaction sample was analyzed and purified by semi-prep high-performance liquid chromatography (HPLC; Shimadzu) C18 column (Gemini 5 μm 110A, 250 × 10 mm) with gradient elution of 50% methanol to 100% methanol in 50 min. The flow rate was 1 ml per min. The LB-biotin conjugate fraction was dried at room temperature with a rotary vacuum evaporator (Heidolph).
The reaction of LB with amine-reactive Atto495 NHS ester (Sigma) was conducted in DMSO. Firstly, Atto495 NHS ester (3 mM), LB (1 mM), and triethylamine (100 mM) were mixed in DMSO in a 0.2 mL reaction volume and reacted at room temperature for 4 h with continuous stirring while protected from light. The reaction solution was applied to semi-prep HPLC to obtain the conjugate of LB-Atto495 as described above, and the LB-Atto495 was dried for use.
The pure LB was reacted with amine-reactive Atto495 NHS ester in DMSO. The reaction solution was applied to semi-prep HPLC. The conjugate of LB-Atto495 was eluded at 29 min (Fig. 2b). […] On the basis of elution times from the HPLC C18 column, the hydrophobicity of four compounds is LB < LA < LB-Atto495 < LB-biotin.

[3] = system: Hela cells; details: read-out: IC50 against Hela cells; cited from earlier work
Description: Leucinostatins have antimicrobial activity against gram-positive bacteria, including Staphylococcus albus, Bacillus subtilis, Sarcina letter, Streptococcus pyrogens, Streptococcus faecalis, and Mycobacterium species, with IC50 values ranging from 2.5 to 100 μM and against some fungal strains with minimal inhibitory concentrations of 10–25 μM [9–11]. In addition, leucinostatins are known as mycotoxins. The IC50 of leucinostatin Α (LA) to MRC-5 (human fetal lung fibroblast cells) is 2 μΜ [12]. […] The IC50 of LA against H ...

[4] = system: O+ human red blood cells; test: Hemolysis assay; format: cell-based; details: 100 µM, 10% human RBC suspension in PBS pH 7.4, 3 h at 37 °C, A540, triplicate, p > 0.9
Description: About 200 µL of O + human red blood cells were washed three times in PBS (pH 7.4) and then suspended with 1 ml of PBS. Then, 0.3 ml of suspension was diluted with 3 mL of PBS to obtain a 10% suspension. All tested compounds were dissolved in DMSO to prepare a series of dilutions of 1 nM, 10 nM, 100 nM, 1 µM, 10 µM, and 100 µM. The erythrocyte suspension (100 μl per well) was added to a 96-well plate, and the samples were rapidly stirred and incubated at 37 °C with periodic stirring during a 3-h incubation period. The solution was then centrifuged at 2,000 rpm for 5 min. The absorbance of the supernatant was measured at 540 nm using a microplate, and the hemolytic ratio (%) was calculated by comparison with the 100% hemolytic activity caused by distilled water as maximal hemolytic control. The hemolytic % developed by the PBS control was subtracted from all groups. Each experiment was performed in triplicate.

[5] = Cytotoxicity assay, MTT, HEK293; format: cell-based, human; details: 24 h incubation at 37 °C, three replicates
Description: (§1) Two methods and two types of cells were used to analyze the general cytotoxicity of small molecules. First, MTT (3-(4,5-dimethylthiazol-2-yl)-2,5-diphenyl tetrazolium bromide; Thermo-fisher) and human embryonic kidney 293 (HEK293) were used in cytotoxicity assays. About 20,000 HEK293 cells in 200 µl of culture medium [Dulbecco’s modified eagle medium (DMEM) with high glutamine and 10% fetal bovine serum] were seeded per well in 96-well microplates. About 1 µl of the compounds in DMSO at various dilutions was added into each well to obtain final concentrations of 0, 10, 100, and 1000 ng/mL. Three replicates were conducted for each concentration. Following incubation at 37 °C with 5% CO2 for 24 h, 10 µL of MTT (5 mg/mL in PBS) was added to each well and incubated for 4 h at 37 °C with 5% CO2. All but 25 µL of the medium was removed from the wells, and 100 µL of DMSO was added to each well and incubated at 37 °C for 10 min to dissolve formazan crystals for measurement. Optical density was measured at an absorbance wavelength of 540 nm.

[6] = system: human embryonic kidney 293 (HEK293) cells; test: Cytotoxicity assay, MTT, HEK293; format: cell-based
Description: as §1

[7] = system: K562 cell line (human immortalized myelogenous leukemia cell); test: Cell proliferation assay, CCK-8 kit, K562; format: cell-based
Description: Second, the CCK-8 kit (Sigma) and K562 cell line (human immortalized myelogenous leukemia cell) were used to determine the inhibition of a compound against cell proliferation. About 20,000 cells in 200 µl of culture medium (RMPI-1640 with 10% fetal bovine serum) were seeded per well in 96-well microplates, and then a series of dilutions of the compound from 0 to 1000 ng/ml was added to the medium. The cells were maintained at 37 °C and 5% CO2 for 48 h, and then 20 μl of the CCK-8 solution was added to each well of the plate. The plate was incubated for 1 h, and the A450 was measured using a microplate.

[8] = system: mice; parameters: method as in 2 sources, ref 9 = [9]; PMID 4783199; doi:10.7164/antibiotics.26.157; 9. Arai T Mikami Y Fukushima K Utsumi T Yazawa K A new antibiotic, leucinostatin, derived from Penicillium lilacinum J Antibiot (Tokyo) 1973 26 157 161 10.7164/antibiotics.26.157 4783199 Arai T, Mikam ||| ref 10 (Mikami et al.); details: intraperitoneal injection; cited from earlier work
[9] = system: P. falciparum gametocytes; test: Distribution of LB-Atto495 in live gametocytes by fluorescence microscopy; format: cell-based, Plasmodium falciparum; details: LB-Atto495 (1 µl of 1 mM in 100 µl) incubated 6 h at room temperature, fluorescent microscope
Description: The 15-day-old cultured P. falciparum was collected from a six-well plate. After centrifugation (300 g for 3 min), the cells were washed with 1 ml of PBS three times at room temperature. About 10 μl of cells was suspended in 100 μl of PBS, and 1 μl of LB-Atto495 (1 mM in DMSO) was added and mixed. The cells were incubated at room temperature in the dark for 6 h. The mixture was centrifuged at 300 g for 3 min to collect cells, which were washed three times with 200 μl of PBS. Finally, the cells were deposited on slides to make a blood smear and fixed with methanol. The vector shield antifade mounting medium for fluorescence (VectorLabs, CA) was dropped on the slides. The slides were covered with coverslips and examined under a fluorescent microscope (Nikon Eclipse Ti-S).

With CCC(=O)C[C@H](O)C[C@@H](C)C[C@H](NC(=O)[C@@H]1C[C@H](C)CN1C(=O)/C=C/[C@@H](C)CC)C(=O)N[C@H](C(=O)NC(C)(C)C(=O)N[C@@H](CC(C)C)C(=O)N[C@@H](CC(C)C)C(=O)NC(C)(C)C(=O)NC(C)(C)C(=O)NCCC(=O)N[C@@H](C)CN(C)C(=O)CCCCCNC(=O)CCCC[C@@H]1SC[C@@H]2NC(=O)N[C@@H]21)[C@H](O)C(C)C [LB-biotin] ({Hexenoyl(2E,4S-Me)}-[Pro(4S-Me)][X1][Leu(3R-OH)][Aib]LL[Aib][Aib][βAla]-X3) as the compound, how does the “Blocking of P. falciparum transmission to mosquitoes at 10 nM” value [1] read?
Its value is “did not inhibit”.

What about the “HPLC elution time (hydrophobicity)” value [2] of the same compound?
Its value is ~31.5 min.

With CCC(=O)C[C@H](O)C[C@@H](C)C[C@H](NC(=O)[C@@H]1C[C@H](C)CN1C(=O)/C=C/[C@@H](C)CC)C(=O)N[C@H](C(=O)NC(C)(C)C(=O)N[C@@H](CC(C)C)C(=O)N[C@@H](CC(C)C)C(=O)NC(C)(C)C(=O)NC(C)(C)C(=O)NCCC(=O)N[C@@H](C)CN(C)C)[C@H](O)C(C)C [LA, leucinostatin A] ({Hexenoyl(2E,4S-Me)}-[Pro(4S-Me)][X1][Leu(3R-OH)][Aib]LL[Aib][Aib][βAla]-{NH((S)CH(Me)CH2NMe2)}) as the compound, how does the pIC50 [3] read?
The pIC50 was ~7.40.

What about the “HPLC elution time (hydrophobicity)” value [2] of the same compound?
The value was ~28.3 min.

What about the “Hemolysis of red blood cells” value [4] of the same compound?
The value was “not significantly different”.

What about the “Hemolysis of red blood cells” value ([4]; listed as leucinostatin A) of the same compound?
Its value is “did not lyse erythrocytes”.

And the pIC50 [5]?
The pIC50 was 7.05.

What about the “Density of living cells versus 0 control, HEK293” value ([6]; 10 ng/mL, p > 0.7) of the same compound?
The value was “no significant difference”.

And the “Reduction of cell proliferation, HEK293” value ([6]; 100 nM, 24 h)?
The value was 38%.

And the “Density of living cells versus 0 control, K562” value ([7]; 10 ng/mL, CCK-8, p > 0.6)?
The value was “no significant difference”.

What about the “Reduction of cell proliferation, K562” value ([7]; 100 nM, CCK-8, 48 h) of the same compound?
Its value is 43.7%.

What about the LD50 [8] of the same compound?
The LD50 was 1.6 mg/kg.

For O=C(CCCC[C@@H]1SC[C@@H]2NC(=O)N[C@@H]21)NCCCCCC(=O)ON1C(=O)CC(S(=O)(=O)[O-])C1=O.[Na+] (some centres unmarked) [sulfo-NHS-LC-Biotin], which “HPLC elution time (hydrophobicity)” value [2] is on record?
Its value is ~16.5 min.

Which results are given for CCC(=O)C[C@H](O)C[C@@H](C)C[C@H](NC(=O)[C@@H]1C[C@H](C)CN1C(=O)/C=C/[C@@H](C)CC)C(=O)N[C@H](C(=O)NC(C)(C)C(=O)N[C@@H](CC(C)C)C(=O)N[C@@H](CC(C)C)C(=O)NC(C)(C)C(=O)NC(C)(C)C(=O)NCCC(=O)N[C@@H](C)CNC)[C@H](O)C(C)C [LB, leucinostatin B] ({Hexenoyl(2E,4S-Me)}-[Pro(4S-Me)][X1][Leu(3R-OH)][Aib]LL[Aib][Aib][βAla]-{NH((S)CH(CH3)CH2NHMe)})?
Blocking of P. falciparum transmission to mosquitoes at 10 nM [1]: completely blocked; HPLC elution time (hydrophobicity) [2]: ~27.5 min

For CCC(=O)C[C@H](O)C[C@@H](C)C[C@H](NC(=O)[C@@H]1C[C@H](C)CN1C(=O)/C=C/[C@@H](C)CC)C(=O)N[C@H](C(=O)NC(C)(C)C(=O)N[C@@H](CC(C)C)C(=O)N[C@@H](CC(C)C)C(=O)NC(C)(C)C(=O)NC(C)(C)C(=O)NCCC(=O)N[C@@H](C)CN(C)C(=O)CCC[n+]1c2cc(N(C)C)ccc2cc2ccc(N(C)C)cc21)[C@H](O)C(C)C [LB-Atto495] ({Hexenoyl(2E,4S-Me)}-[Pro(4S-Me)][X1][Leu(3R-OH)][Aib]LL[Aib][Aib][βAla]-X2), which “HPLC elution time (hydrophobicity)” value [2] is on record?
Its value is 29 min.

What about the “Location in live P. falciparum gametocytes” value [9] of the same compound?
Its value is “colocalized with mitochondria; also recorded: binds mitochondria specifically in parasites”.
